Test results from ChEMBL document CHEMBL3507680, “University of Dundee, Gates Library screen for HepG2 cell viability”.

Experiment: Human HepG2 cell viability assay in 384 well format
Assay type: toxicity, cell-based
Parameters: dose 125 nL, time 70.5 hour; concentration not given beside the values
Conditions: HepG2 cells, read-out: Inhibition

Going from `CC(C)c1nn(C)c(N(C)C)c1CNC1CCCOc2ccccc21` (configuration not stated) to `CC(C)c1nn(C)c(Cl)c1CNC1CCOc2ccccc21` (configuration not stated), the cytotoxicity at 70.5 h falls from 31.4% to -2.92%.

First: Cn1ccc(C(=O)N2CCN(c3nccs3)CC2)cc1=O
Second: CCn1ccnc1CN1CCCN(C(=O)c2cccc(C#N)c2)CC1
The cytotoxicity at 70.5 h of the first is higher: 2.52% for the first, -15.8% for the second.

Going from `O=C(Nc1ccc2c(c1)C(=O)NC2)c1ccc(S(=O)(=O)C(F)(F)F)cc1` to `O=C(O)c1cc(-n2cc3c(n2)CCC3)cc(S(=O)(=O)NC2CCCC2)c1`, the cytotoxicity at 70.5 h rises from -2.46% to 26.3%.

First: CCOCCN1CCN(CCC(=O)N2CCCCC2)CC1C (configuration not stated)
Second: Cc1nn(CCO)c(C)c1CN1CCN(C2CCCCC2)C(=O)C1
The cytotoxicity at 70.5 h of the first is lower: -0.119% for the first, 0.129% for the second.

First: CC(C)(C)OC(=O)N1CCCN(Cc2ccon2)c2ccccc21
Second: CC1Cc2ccccc2N1Cc1occc1C(=O)O (configuration not stated)
The cytotoxicity at 70.5 h of the first is higher: 9.4% for the first, -5.89% for the second.

Going from `Cc1noc(C2CCC3(CCN(C(=O)C4=CCCCC4)CC3)O2)n1` (configuration not stated) to `Cc1cnc(CC2COCCN(C(=O)CN3CCOCC3)C2)cn1` (configuration not stated), the cytotoxicity at 70.5 h rises from -6.87% to -4.65%.

Going from `CCS(=O)(=O)NCC(=O)N1CC2(CCCC2)c2c(F)cccc21` to `Cc1cccc(C2(NCCCS(C)(=O)=O)CCCC2)c1`, the cytotoxicity at 70.5 h falls from -1.86% to -6.96%.

Going from `Cc1csc(NC(=O)CN(C)CC2CCCN2c2cccnn2)n1` (configuration not stated) to `CCc1nnc(Nc2cccc(C3CCN(C(=O)CNC)CC3)n2)s1`, the cytotoxicity at 70.5 h rises from 3.61% to 10.1%.

First: c1ccc(OCC2CC2)c(CNC2CCc3ncnn3C2)c1 (configuration not stated)
Second: CCC(Nc1nnnn1-c1ccccc1)C(=O)NC1CCSCC1 (configuration not stated)
The cytotoxicity at 70.5 h of the first is higher: -7.19% for the first, -9.32% for the second.

Going from `Cc1cc2[nH]cc(C(=O)N3CCCCC3c3ccc(F)cc3)c(=O)n2n1` (configuration not stated) to `O=C(CN1C(=O)CCNC1=O)N1CCC(c2ccc(F)cc2)C1` (configuration not stated), the cytotoxicity at 70.5 h falls from -3.07% to -5.75%.

Compared with `c1ccc(CN2CCC(c3nccnc3-n3ccnc3)CC2)cc1`, `CNS(=O)(=O)c1ccc(C(=O)N2CCCC2Cc2ccccc2)o1` (configuration not stated) is higher in cytotoxicity at 70.5 h: -14.9% for the first, 1.08% for the second.

First: Cc1ccc(C2CCCN2S(=O)(=O)N(C)Cc2cnccn2)o1 (configuration not stated)
Second: COc1cc(C)sc1C(=O)N1CCCCC1c1ccccn1 (configuration not stated)
The cytotoxicity at 70.5 h of the first is higher: -3.89% for the first, -16.5% for the second.

Going from `CC(C)n1ncc2c1NC(=O)CSC2C(C)(C)C` (configuration not stated) to `COc1ccc2c(c1)C(C(=O)N(C)CCCc1nccn1C)CC(=O)N2` (configuration not stated), the cytotoxicity at 70.5 h rises from -2.79% to 5.74%.

Going from `CCOC(=O)COC1CCN(C(C)=O)CC(=O)N(C)c2ccccc21` (configuration not stated) to `CCOC(=O)c1nnc2ccccc2c1N1CCN(CC)CC1`, the cytotoxicity at 70.5 h falls from -3.91% to -7.65%.

Compared with `O=C(Cc1cccs1)NCC1Cn2nnc(-c3ccoc3)c2CO1` (configuration not stated), `O=C(NCc1cccs1)[C@H]1CC[C@@H]2[C@@H](CCN2Cc2ccoc2)O1` is higher in cytotoxicity at 70.5 h: -5.7% for the first, 2.32% for the second.

Compared with `COc1cc2nc(NCc3scnc3C)nc(N)c2cc1OC`, `COc1cccc(F)c1C(C)NC(=O)NCc1ccnc(C)n1` (configuration not stated) is higher in cytotoxicity at 70.5 h: 8.57% for the first, 26.5% for the second.

Compared with `CCOc1ccc(NC(=O)c2oc(CC)cc2C)cc1CO`, `CCOc1ccc2[nH]c(=O)c(CN3CCCCC3C)cc2c1` (configuration not stated) is lower in cytotoxicity at 70.5 h: -3.11% for the first, -3.42% for the second.

Compared with `COCCN(Cc1ccccn1)C(=O)c1ccc(=O)n(C)c1`, `CN(C)S(=O)(=O)CCNc1ncc2c(n1)CCN2c1ccccc1` is lower in cytotoxicity at 70.5 h: 1.44% for the first, -6.26% for the second.

Compared with `CN(CCN1CCCCCC1)C(=O)c1cc(CN2CCC(O)CC2)on1`, `Cc1nn(C)c2ncc(NC(=O)N3CCCCCC3)cc12` is lower in cytotoxicity at 70.5 h: -0.511% for the first, -4.95% for the second.

Going from `Cn1nc(C(=O)NN2CCOCC2)c(Cl)c1C(F)(F)F` to `Clc1cnccc1N1CCCOCC1`, the cytotoxicity at 70.5 h falls from -3.83% to -5.38%.

Going from `COC(=O)C(O)C1CCN(CCc2ccncc2)CC1` (configuration not stated) to `CCNC(=O)N(Cc1ccoc1)C1CCCCC1`, the cytotoxicity at 70.5 h falls from 9.73% to -5.6%.

Going from `Fc1ccc(C(CNc2ccncn2)N2CCCC2)cc1` (configuration not stated) to `O=C(NCC(O)c1ccc(F)cc1)C1CCN(C2CCCCC2)CC1` (configuration not stated), the cytotoxicity at 70.5 h falls from 12.7% to -7.05%.

Compared with `CC(C)CNC(=O)CN(CC(=O)NCC(C)C)S(C)(=O)=O`, `COc1ccc(C(CNC(=O)NCc2csc(C)n2)N(C)C)cc1` (configuration not stated) is higher in cytotoxicity at 70.5 h: -8.05% for the first, 21% for the second.

First: COc1cc2cc(C(=O)NCCC(=O)O)n(C)c2c(OC)c1OC
Second: COc1ccc(C[C@H]2CN(c3cc(OC)ncn3)CC[C@H]2OC)cc1
The cytotoxicity at 70.5 h of the first is lower: -4.76% for the first, 11.6% for the second.

First: CC(=O)N1CCC2(CC1)c1ncc(-c3ccccc3)n1CCN2C
Second: O=C1COC2(COCCN(c3ccccn3)C2)CN1c1cccc(F)c1 (configuration not stated)
The cytotoxicity at 70.5 h of the first is higher: -9.38% for the first, -9.76% for the second.

Compared with `O=C(NC[C@H]1OC[C@@H](NC2COC2)[C@@H]1O)c1ccccc1`, `COc1ccc(C(=O)N2CCO[C@H]3[C@@H](OCC4CC4)CC[C@@H]32)cc1F` is higher in cytotoxicity at 70.5 h: -6.48% for the first, -2.05% for the second.

First: Cc1cc(C(=O)NC2CCN(CC(N)=O)CC2)nn1C(C)(C)C
Second: Cc1cc(NC(=O)CN2CCCC2c2noc(C3CC3)n2)n(C)n1 (configuration not stated)
The cytotoxicity at 70.5 h of the first is lower: -18.9% for the first, -10.4% for the second.

Compared with `CC(NC(=O)N(C)Cc1ccsc1)c1ccc2c(c1)OCO2` (configuration not stated), `Cn1c2c(ccc1=O)CC(Nc1ncc(F)cn1)CC2` (configuration not stated) is higher in cytotoxicity at 70.5 h: -14.1% for the first, -11.5% for the second.

Work on `O=C(C1CC1)N1C[C@H]2CCCN(S(=O)(=O)c3ccc(Cl)s3)[C@H]2C1` yielded a cytotoxicity at 70.5 h of -0.267%.
